Assay results reported in patent publication US4913907A, “Porphycene anti-cancer agents and treatment methods” (Cytopharm, Inc., priority 1988, dated 1990).
Where two headings read alike, the source gives them in different places. Blank lines part the entries; values can stand above or below the compound they belong to.

Tests used:
[1] = Tissue analysis: recovery of TPP from serum and tissues after injection; assay type: in vivo, mice; conditions: 2 mg/kg; for concentration at 3 h / concentration at 24 h: mouse, iv, average of 6 mice, maximum deviation ±20%; for concentration at 3 h: 3 hours after injection; for concentration at 24 h: 24 hours after injection
Experimental: At each of 3 hours and 24 hours after injection, six mice were sacrificed by exposure to ether vapor, and the serum or specific tissue were removed. About 2 mL of blood was taken intracardially and centrifuged for 15 minutes at 3,000 rpm to remove the erythrocytes. The serum was collected, diluted with 2% aqueous SDS and assayed for TPP content spectrophotofluorimetrically (λex =560 nm). The fluorescence emitted in the 580-740 nm interval was converted into TPP concentration by interpolation with a calibration plot.
The tumor and predetermined normal tissues were removed, washed twice with PBS, and a weighed amount of tissue (approximately 200 mg) was finely minced and homogenized in a Potter vessel with 4 mL chloroform. The dispersion was centrifuged at 3,000 rpm for 15 minutes; the supernatant was collected and its TPP content was estimated spectrophotofluorimetrically as described above. Rehomogenization of the sediment under the same conditions gave less than 3% of the TPP extracted in the original step. […]
The recovery of TPP from serum and various tissues of the tumor-bearing mice at 3 hours and 24 hours after injection are shown in Table 1. The samples from each animal were analyzed separately, and are table values represent the average recovery data from the single tissues of 6 mice. The maximum deviation from the reported values was ±20%.

[2] = system: MS-2 fibrosarcoma; experiment: Phototherapy of tumor-bearing mice, tumor response; assay type: in vivo, Female Balb/c mice
Experimental: By the seventh day after transplantation, the tumors had reached a diameter of approximately 0.8 cm.
(§1) Each mouse was intravenously injected with 2 mg./kg. of 2,7,12,17-tetra-n-propylporphycene (TPP) incorporated into small umilamellar liposomes of dipalmitoyl-phosphatidylcholine (DPPC), prepared according to the procedures of Example 2, on the seventh day after transplantation. At this time the diameter of the tumor was approximately 0.8 cm.
(§2) 24 hours after TPP injection, the tumor area was exposed to 600-690 nm. light isolated by optical filtration from the emission of a 250 W quartz-halogen lamp through a set of optical filters (Teclas, Lugano, Switzerland). The light beam was focused into a bundle of optical fibers having an external diameter of 6 mm. The tip of the fiber was kept at a distance of 1 cm from the tissue surface. The lamp was operated at a dose-rate of 230 mW/cm^2, and the total delivered light dose was 150 J/cm^2 or 300 J/cm^2.

[3] = system: normal skin; experiment: Phototherapy, photoinduced damage of irradiated normal skin; assay type: in vivo, Female Balb/c mice
Experimental: as §1, §2
An equal area of normal skin on the left hind leg was irradiated in each mouse immediately after tumor irradiation using an identical protocol.

[4] = cited from earlier work
[5] = Distribution and clearance in a mouse model (statement in the description); assay type: in vivo
[6] = Solubility; assay type: physicochemical
[7] = brain, read-out: Recovery, brain
[8] = liver, read-out: Recovery, liver
[9] = muscle, read-out: Recovery, muscle
[10] = tumor, read-out: Recovery, tumor
[11] = 2 mg/kg i.v., 300 J/cm^2 at 24 hours after TPP injection

concentration at 3 h [1, 7]: < 10 ng/g
concentration at 24 h [1, 7]: < 10 ng/g
concentration at 3 h ([1]; kidneys, read-out: Recovery, kidneys): 1250 ng/g
concentration at 3 h [1, 8]: 13000 ng/g
concentration at 24 h [1, 8]: 11100 ng/g
concentration at 3 h [1, 9]: 140 ng/g
concentration at 24 h [1, 9]: 90 ng/g
concentration at 24 h ([1]; serum, read-out: Recovery, serum): 25600 ng/mL
concentration at 3 h ([1]; skin, read-out: Recovery, skin): 290 ng/g
concentration at 24 h ([1]; skin, read-out: Recovery, skin): 440 ng/g
concentration at 24 h ([1]; spleen, read-out: Recovery, spleen): 2940 ng/g
concentration at 3 h [1, 10]: 690 ng/g
concentration at 24 h [1, 10]: 1500 ng/g
recovery from the tumor ([1]; tumor tissue, time not stated): approximately 1 μg/g
drug clearance route ([5]; mouse model): via the liver rather than by the kidneys
SMILES: CCCC1=Cc2nc1ccc1[nH]c(cc1CCC)c1nc(ccc3[nH]c2cc3CCC)C(CCC)=C1 [TPP, 2,7,12,17-tetra-n-propylporphycene]
onset of tumor necrosis ([2]; 2 mg/kg i.v. in DPPC liposomes, 300 J/cm^2 of 600-690 nm light at 24 hours after TPP injection): massive tumor necrosis
tumor necrosis ([2]; 2 mg/kg i.v., 150 J/cm^2 of red light at 24 hours after TPP injection): equally deep necrosis, however less extensive
eschar formation complete within [2, 11]: ≤ 3 days
time until depth of necrosis reached bone [2, 11]: about 7 days
erythema, disappearance ([3]; irradiated TPP-treated mice): disappeared within about one week
photoinduced damage at the level of the normal skin ([3]; irradiated TPP-treated mice, most animals, mainly erythema): developed some photoinduced damage at the level of the normal skin
erythema, diameter ([3]; irradiated TPP-treated mice, generally): less than 0.3 cm
photosensitivity at the irradiated normal skin ([3]; left hind leg, identical irradiation protocol): Some photosensitivity was also observed
absorption above 620 nm [4]: high absorption above 620 nm
tumor uptake as compared to skin or muscle tissue ([5]; 24 hours post-injection): concentrate preferentially in tumor tissue as compared to skin or muscle tissue
uptake by the brain ([5]; mouse model): little or no porphycene uptake by the brain

SMILES: C1=Cc2nc1ccc1ccc([nH]1)c1nc(ccc3ccc2[nH]3)C=C1 [porphycene]
solubility in water and pharmaceutically suitable solvents [6]: not soluble in water and pharmaceutically suitable solvents
absorption above 620 nm [4]: high absorption above 620 nm
